Patent US11400106B2, “Methods for inhibiting microbe growth” (priority 2018, dated 2022)
Where two headings read alike, the source gives them in different places. Marks after values point to notes of the source that are not given here.

Key:
E. coli [1] = test: microbe, parasite or virus in culture; format: cell-based, Escherichia coli
S. aureus [2] = test: FIC index of pentamidine combined with various salts (checkerboard); format: cell-based, Staphylococcus aureus; conditions: combination of pentamidine isethionate with each salt; FICI≤0.5 synergy, 1-2 additivity, >4 antagonism
Protocol: (§1) In the following experiments, bacterial cells were cultured in 96-well microtiter plates in cation-adjusted Mueller-Hinton Broth (MHB) for 18 h at 37° C. The main strains used were E. coli (K-12 BW25113) (placed in stationary incubator) and S. aureus (Newman Strain) (incubated at 250 r.p.m). Knockout strains (ΔtolcC and ΔychM) were used from the Keio knockout collection (Baba et al., Construction of Escherichia coli K-12 in-frame, single-gene knockout mutants: the Keio collection. Mol Syst Biol 2, 2006 0008, doi:10.1038/msb4100050 (2006)). For MIC determination and checkerboard analyses, Clinical & Laboratory Standards Institute (CLSI) protocol was used. […] DiSC3 loading of S. aureus cells was performed as previously described (Farha et al., Collapsing the proton motive force to identify synergistic combinations against Staphylococcus aureus. Chemistry & biology 20, 1168-1178, doi:10.1016/j.chembiol.2013.07.006 (2013)). CCCP concentration of 20 μM was used. pH adjustments were made by addition of HCl or NaOH. INT assay and ATP bioluminescence assays were performed as previously described (Farha et al., Collapsing the proton motive force to identify synergistic combinations against Staphylococcus aureus. Chemistry & biology 20, 1168-1178, doi:10.1016/j.chembiol.2013.07.006 (2013)). For chemical-genomic studies, the Keio library was grown overnight in cation-adjusted MHB broth, in 384-well plates. From these, treatment plates (25 mM sodium bicarbonate, or a sterile water control) were inoculated and grown for 15 hours at 37° C., in a stationary incubator. Data was normalized according to Mangat et al (Mangat et al., Rank ordering plate data facilitates data visualization and normalization in high-throughput screening. J Biomol Screen 19, 1314-1320, doi:10.1177/1087057114534298 (2014)), with gene products and GO terms mined from EcoCyc. The GFP promoter library (Keseler et al., EcoCyc: fusing model organism databases with systems biology. Nucleic Acids Res 41, D605-612, doi:10.1093/nar/gks1027 (2013)) was grown for 18 hours at ambient temperature with the same inoculation strategy as with the Keio collection. The analysis pipeline of Zaslaver et al (Zaslaver et al., A comprehensive library of fluorescent transcriptional reporters for Escherichia coli. Nat Methods 3, 623-628, doi:10.1038/nmeth895 (2006)) was used to generate maps of promoter activity, from which lists of promoters with increased or decreased activity were compiled.

S. aureus [3] = test: Checkerboard microdilution with sodium bicarbonate against S. aureus; format: cell-based, Staphylococcus aureus
Protocol: as §1
(§2) The effect of sodium bicarbonate on the activity of various antibacterial agents was investigated. Clinical isolates of various bacteria were obtained from the American Type Culture Collection (“ATCC”) and the International Health Management Associates (“IHMA”). Fractional inhibitory concentration indices (FICIs) were determined by setting up standard checkerboard broth microdilution assays in 96-well microtiter plates with serially diluted 8 (or 10) concentrations of each drug (sodium bicarbonate and the antibacterial agent). The protocol for checkerboard analyses was based on the CLSI guidelines. Plates were incubated at 37° C. for 18 hours, and optical density was read at 600 nm. At least 3 replicates were done for each query compound.
(§3) The FIC index (FICI) is the sum of the two FICs. Chemical-chemical interactions with ΣFIC of less or equal to 0.5 were deemed synergistic.
(§4) As validation, three of the antibiotic agents were further tested with checkerboard analyses. Checkerboard broth microdilution assays were set up in 96-well microtiter plates with serially diluted 8 (or 10) concentrations of each compound (sodium bicarbonate and the antibiotic). The protocol for checkerboard analyses was based on the CLSI guidelines. Plates were incubated at 37° C. for 18 hours, and optical density was read at 600 nm. At least 3 replicates were done for each query compound.

S. aureus [4] = test: microbe, parasite or virus in culture; conditions: for MIC, S. aureus, MHB− / MIC, S. aureus, MHB: MHB in the absence of sodium bicarbonate; for MIC in MHB / MIC in MHB + 25 mM bicarbonate: S. aureus (Newman strain) (MSSA)
E. coli [5] = test: Checkerboard microdilution with sodium bicarbonate against E. coli; format: cell-based, Escherichia coli
Protocol: as §1, §2, §3, §4

[6] = E. coli, salt at 25 mM, pH adjusted to 7.4
[7] = antibiotic agents, MHB in the absence of sodium bicarbonate
[8] = antibiotic agents, MHB in the presence of 25 mM sodium bicarbonate
[9] = antibiotic agents, fold shift in MIC, MHB− vs MHB+
[10] = MHB in the presence of 25 mM sodium bicarbonate
[11] = antiseptic agents, MHB in the presence of 25 mM sodium bicarbonate
[12] = antiseptic agents, fold shift in MIC

## OB(O)O [Boric acid]
E. coli [1]
  MIC of dirithromycin in the presence of the salt: 128 µg/mL
S. aureus [2]
  FIC Index (with pentamidine in S. aureus): 1

## c1cc2c(cc1C1CCCCC1)c1c3n2CCN=C3CCC1 [I1]
S. aureus [3]
  interaction with sodium bicarbonate (checkerboard): synergistic interactions

## COc1ccc(-c2n(CC(=O)OC3CC(C)CCC3C(C)C)c3ccccc3[n+]2C)cc1.[Cl-] (stereo not drawn) [I2]
S. aureus [3]
  interaction with sodium bicarbonate (checkerboard): synergistic interactions

## CC1=CCCC2C1CCC(C)C2(C)CC/C(C)=C/Cn1c[n+](C)c2c(N)ncnc21.[Cl-] (stereo not drawn) [I3]
S. aureus [3]
  interaction with sodium bicarbonate (checkerboard): synergistic interactions

## O=S(=O)(O)CCO [Isethionic acid]
E. coli [1]; [6]
  MIC of dirithromycin in the presence of the salt: 128 µg/mL
S. aureus [2]
  FIC Index (with pentamidine in S. aureus): 2

## CC[C@H]1OC(=O)[C@H](C)[C@@H](O[C@H]2C[C@@](C)(OC)[C@@H](O)[C@H](C)O2)[C@H](C)[C@@H](O[C@@H]2O[C@H](C)C[C@H](N(C)C)[C@H]2O)[C@](C)(O)C[C@@H](C)/C(=N\OCOCCOC)[C@H](C)[C@@H](O)[C@]1(C)O [Roxithromycin]
E. coli [1]
  MIC, E. coli, MHB+: 16 μg of antimicrobial agent/mL of buffer
E. coli [1]; Escherichia coli, 18 h, antibiotic agents, MHB in the absence of sodium bicarbonate, read-out: MIC, E. coli, MHB−
  MIC: > 128 µg/mL
S. aureus [4]
  MIC, S. aureus, MHB+: 0.5 μg of antimicrobial agent/mL of buffer
S. aureus [4]; Staphylococcus aureus, 18 h, read-out: MIC, S. aureus, MHB−
  MIC: 4 µg/mL
E. coli [5]
  interaction with sodium bicarbonate (checkerboard): synergistic interactions
S. aureus [3]
  interaction with sodium bicarbonate (checkerboard): synergistic interactions

## CC(=O)[O-].[Na+] [Sodium acetate]
E. coli [1]
  MIC of dirithromycin in the presence of the salt: 64 µg/mL
S. aureus [2]
  FIC Index (with pentamidine in S. aureus): 2

## [Br-].[Na+] [Sodium bromide]
E. coli [1]; [6]
  MIC of dirithromycin in the presence of the salt: 128 µg/mL
S. aureus [2]
  FIC Index (with pentamidine in S. aureus): 2

## [Cl-].[Na+] [Sodium chloride]
E. coli [1]; [6]
  MIC of dirithromycin in the presence of the salt: 128 µg/mL
S. aureus [2]
  FIC Index (with pentamidine in S. aureus): 2

## [F-].[Na+] [Sodium fluoride]
E. coli [1]; [6]
  MIC of dirithromycin in the presence of the salt: 128 µg/mL
S. aureus [2]
  FIC Index (with pentamidine in S. aureus): 1

## O=[N+]([O-])[O-].[Na+] [Sodium nitrate]
E. coli [1]; [6]
  MIC of dirithromycin in the presence of the salt: 128 µg/mL
S. aureus [2]
  FIC Index (with pentamidine in S. aureus): 2

## O=P(O)(O)O [Sodium phosphate]
E. coli [1]
  MIC of dirithromycin in the presence of the salt: >128 µg/mL
S. aureus [2]
  FIC Index (with pentamidine in S. aureus): >8

## O=S(=O)([O-])[O-].[Na+].[Na+] [Sodium sulfate]
E. coli [1]
  MIC of dirithromycin in the presence of the salt: 128 µg/mL
S. aureus [2]
  FIC Index (with pentamidine in S. aureus): 2

## CN(C)C(=O)C(CCN1CCC(O)(c2ccc(Cl)cc2)CC1)(c1ccccc1)c1ccccc1 [loperamide]
E. coli [5]
  interaction with sodium bicarbonate (checkerboard): synergistic interactions

## CC(C)[C@@H]1NC(=O)[C@H](C)OC(=O)[C@@H](C(C)C)NC(=O)[C@@H](C(C)C)OC(=O)[C@H](C(C)C)NC(=O)[C@H](C)OC(=O)[C@@H](C(C)C)NC(=O)[C@@H](C(C)C)OC(=O)[C@H](C(C)C)NC(=O)[C@H](C)OC(=O)[C@@H](C(C)C)NC(=O)[C@@H](C(C)C)OC1=O [valinomycin]
S. aureus [3]
  interaction with sodium bicarbonate (checkerboard): synergistic interactions

## Furadinozoline
E. coli [1]; [7]
  MIC, E. coli, MHB−: 4 μg of antimicrobial agent/mL of buffer
E. coli [1]; [8]
  MIC, E. coli, MHB+: 4 μg of antimicrobial agent/mL of buffer
E. coli [1]; [9]
  Fold, E. coli: 1
S. aureus [4]; antibiotic agents
  MIC, S. aureus, MHB−: 32 μg of antimicrobial agent/mL of buffer
S. aureus [4]; [8]
  MIC, S. aureus, MHB+: 16 μg of antimicrobial agent/mL of buffer
S. aureus [4]; [9]
  Fold, S. aureus: 2

## Gramicidin
E. coli [1]; [7]
  MIC, E. coli, MHB−: >128 μg of antimicrobial agent/mL of buffer
E. coli [1]; [8]
  MIC, E. coli, MHB+: >128 μg of antimicrobial agent/mL of buffer
E. coli [1]; [9]
  Fold, E. coli: 1
S. aureus [4]; antibiotic agents
  MIC, S. aureus, MHB−: 1 μg of antimicrobial agent/mL of buffer
S. aureus [4]; [8]
  MIC, S. aureus, MHB+: 0.25 μg of antimicrobial agent/mL of buffer
S. aureus [4]; [9]
  Fold, S. aureus: 4

## Hyaluronic acid
E. coli [1]
  enhancement of antimicrobial activity in the presence of bicarbonate: 64 fold
S. aureus [4]
  MIC in MHB: 4 µg/mL
  MIC in MHB + 25 mM bicarbonate: 0.0625 µg/mL
S. aureus [4]; S. aureus, 25 mM sodium bicarbonate
  enhancement of antimicrobial activity in the presence of bicarbonate: 64 fold

## Lysozyme
E. coli [1]; E. coli, result in words
  effect of 25 mM sodium bicarbonate on antibacterial activity: enhanced
S. aureus [4]
  MIC in MHB: >256** μg/mL
  MIC in MHB + 25 mM bicarbonate: >256** μg/mL

## Neomycin
E. coli [1]
  Fold, E. coli: 4
S. aureus [4]
  Fold, S. aureus: 4
  MIC, S. aureus, MHB−: 2
S. aureus [4]; [10]
  MIC, S. aureus, MHB+: 0.5

## Nisin
E. coli [1]; [7]
  MIC, E. coli, MHB−: >128 μg of antimicrobial agent/mL of buffer
E. coli [1]; [8]
  MIC, E. coli, MHB+: >128 μg of antimicrobial agent/mL of buffer
E. coli [1]; [9]
  Fold, E. coli: 1
S. aureus [4]; antibiotic agents
  MIC, S. aureus, MHB−: >128 μg of antimicrobial agent/mL of buffer
S. aureus [4]; [8]
  MIC, S. aureus, MHB+: >128 μg of antimicrobial agent/mL of buffer
S. aureus [4]; [9]
  Fold, S. aureus: 1

## Polyhexanide
E. coli [1]
  Fold, E. coli: 2
  MIC, E. coli, MHB: 1 μg of antimicrobial agent/mL of buffer
  MIC, E. coli, MHB+: 0.5 μg of antimicrobial agent/mL of buffer
S. aureus [4]; antiseptic agents
  MIC, S. aureus, MHB: 0.5 μg of antimicrobial agent/mL of buffer
S. aureus [4]; [11]
  MIC, S. aureus, MHB+: 0.25 μg of antimicrobial agent/mL of buffer
S. aureus [4]; [12]
  Fold, S. aureus: 2

## Polymyxin B
E. coli [1]
  Fold, E. coli: −2
S. aureus [4]
  Fold, S. aureus: 8
  MIC, S. aureus, MHB−: 256
S. aureus [4]; [10]
  MIC, S. aureus, MHB+: 32
S. aureus [4]; S. aureus, result in words
  effect of 25 mM sodium bicarbonate on antibacterial activity: enhanced

## Polyvinylpyrrolidone iodine complex
E. coli [1]; antiseptic agents, MHB in the absence of sodium bicarbonate
  MIC, E. coli, MHB: >128 μg of antimicrobial agent/mL of buffer
E. coli [1]; [11]
  MIC, E. coli, MHB+: >128 μg of antimicrobial agent/mL of buffer
E. coli [1]; [12]
  Fold, E. coli: 1
S. aureus [4]; antiseptic agents
  MIC, S. aureus, MHB: >128 μg of antimicrobial agent/mL of buffer
S. aureus [4]; [11]
  MIC, S. aureus, MHB+: >128 μg of antimicrobial agent/mL of buffer
S. aureus [4]; [12]
  Fold, S. aureus: 1

## Teicoplanin
E. coli [1]
  MIC, E. coli, MHB+: 128 μg of antimicrobial agent/mL of buffer
E. coli [1]; [7]
  MIC, E. coli, MHB−: 128 μg of antimicrobial agent/mL of buffer
E. coli [1]; [9]
  Fold, E. coli: 1
S. aureus [4]; antibiotic agents
  MIC, S. aureus, MHB−: 1 μg of antimicrobial agent/mL of buffer
S. aureus [4]; [8]
  MIC, S. aureus, MHB+: 2 μg of antimicrobial agent/mL of buffer
S. aureus [4]; [9]
  Fold, S. aureus: −2
